Assays:
Assay in all cases: 33PanQinase panel
Type in all cases: biochemical
[1] = target: T1, CSF1-R (Homo sapiens, UniProt P07333); details: read-out: Residual Activity (%)
T1 construct: purchased ProQinase
Description: (§1) Figure 5 Dendrogram representation of the selectivity profile of 29d at a concentration of 1 μM in a panel of 320 wild-type kinases (ProQinase, Freiburg, Germany). The residual kinase activity was determined compared to DMSO control. Images were generated using TREEspot Software Tool, DISCOVERX CORPORATION 2010. […]
(§2) Table S2. Selectivity profile of compound 29d. The inhibitor has been screened at a concentration of 1 µM over a panel of 320 wild-type protein kinases by ProQinase GmbH (Freiburg, Germany) using an activity-based radiometric 33PanQinase® assay. Results are presented as percentage of residual kinase activity relative to […]
(§3) control. The final DMSO concentration was 1 % in each reaction-mix. Classification of protein kinase families refers to Manning et al. (Manning, G.; Whyte, D. B.; Martinez, R.; Hunter, T.; Sudarsanam, S. The Protein Kinase Complement of the Human Genome. Science 2002, 298, 1912–1934): AGC = containing PKA, PKG, PKC families; […] = containing Cdk, MAPK, GSK3, CLK families; STE = homologs of yeast sterile 7, sterile 11, sterile 20 kinases; TK = tyrosine kinase; TKL = tyrosine kinase-like.
(§4) Kinase name Kinase family Residual Activity (%)

[2] = target: T2, AKT3 aa106-479 (Homo sapiens, UniProt Q9Y243); details: AKT3 aa106-479, 1 µM; read-out: Residual Activity (%)
T2 construct: purchased ProQinase
Description: as §1, §2, §3, §4

[3] = target: T3, STK39 (Homo sapiens, UniProt Q9UEW8); details: STK39, 1 µM; read-out: Residual Activity (%)
T3 construct: purchased ProQinase
Description: as §1, §2, §3, §4

[4] = target: T4, CHK1 (Homo sapiens, UniProt O14757); details: CHK1, 1 µM; read-out: Residual Activity (%)
T4 construct: purchased ProQinase
Description: as §1, §2, §3, §4

[5] = target: T5, TGFB-R1 (Homo sapiens, UniProt P36897); details: TGFB-R1, 1 µM; read-out: Residual Activity (%)
T5 construct: purchased ProQinase
Description: as §1, §2, §3, §4

[6] = target: T6, ERBB2 (Homo sapiens, UniProt P04626); details: ERBB2, 1 µM; read-out: Residual Activity (%)
T6 construct: purchased ProQinase
Description: as §1, §2, §3, §4

[7] = target: T7, HIPK4 (Homo sapiens, UniProt Q8NE63); details: HIPK4, 1 µM; read-out: Residual Activity (%)
T7 construct: purchased ProQinase
Description: as §1, §2, §3, §4

[8] = target: T8, IGF1-R (Homo sapiens, UniProt P08069); details: read-out: Residual Activity (%)
T8 construct: purchased ProQinase
Description: as §1, §2, §3, §4

[9] = target: T9, EEF2K (Homo sapiens, UniProt O00418); details: read-out: Residual Activity (%)
T9 construct: purchased ProQinase
Description: as §1, §2, §3, §4

[10] = target: T10, p38-gamma (Homo sapiens, UniProt P53778); details: read-out: Residual Activity (%)
T10 construct: purchased ProQinase
Description: as §1, §2, §3, §4

[11] = target: T11, EPHB4 (Homo sapiens, UniProt P54760); details: EPHB4, 1 µM; read-out: Residual Activity (%)
T11 construct: purchased ProQinase
Description: as §1, §2, §3, §4

[12] = target: T12, FGF-R4 (Homo sapiens, UniProt P22455); details: FGF-R4, 1 µM; read-out: Residual Activity (%)
T12 construct: purchased ProQinase
Description: as §1, §2, §3, §4

[13] = target: T13, MST1 (Homo sapiens, UniProt Q13043); details: MST1, 1 µM; read-out: Residual Activity (%)
T13 construct: purchased ProQinase
Description: as §1, §2, §3, §4

[14] = target: T14, CK1-epsilon (Homo sapiens, UniProt P49674); details: read-out: Residual Activity (%)
T14 construct: purchased ProQinase
Description: as §1, §2, §3, §4

[15] = target: T15, DYRK2 (Homo sapiens, UniProt Q92630); details: DYRK2, 1 µM; read-out: Residual Activity (%)
T15 construct: purchased ProQinase
Description: as §1, §2, §3, §4

[16] = target: T16, ERK1 (Homo sapiens, UniProt P27361); details: ERK1, 1 µM; read-out: Residual Activity (%)
T16 construct: purchased ProQinase
Description: as §1, §2, §3, §4

[17] = target: T17, BMX (Homo sapiens, UniProt P51813); details: read-out: Residual Activity (%)
T17 construct: purchased ProQinase
Description: as §1, §2, §3, §4

[18] = target: T18, MLK4 (Homo sapiens, UniProt Q5TCX8); details: MLK4, 1 µM; read-out: Residual Activity (%)
T18 construct: purchased ProQinase
Description: as §1, §2, §3, §4

[19] = target: T19, EPHA3 (Homo sapiens, UniProt P29320); details: EPHA3, 1 µM; read-out: Residual Activity (%)
T19 construct: purchased ProQinase
Description: as §1, §2, §3, §4

[20] = target: T20, TEC (Homo sapiens, UniProt P42680); details: read-out: Residual Activity (%)
T20 construct: purchased ProQinase
Description: as §1, §2, §3, §4

[21] = target: T21, PAK6 (Homo sapiens, UniProt Q9NQU5); details: PAK6, 1 µM; read-out: Residual Activity (%)
T21 construct: purchased ProQinase
Description: as §1, §2, §3, §4

[22] = target: T22, CDK6/CycD1 (Homo sapiens, UniProt Q00534); details: CDK6/CycD1, 1 µM; read-out: Residual Activity (%)
T22 construct: purchased ProQinase
Description: as §1, §2, §3, §4

[23] = target: T23, MATK (Homo sapiens, UniProt P42679); details: read-out: Residual Activity (%)
T23 construct: purchased ProQinase
Description: as §1, §2, §3, §4

[24] = target: T24, NEK1 (Homo sapiens, UniProt Q96PY6); details: NEK1, 1 µM; read-out: Residual Activity (%)
T24 construct: purchased ProQinase
Description: as §1, §2, §3, §4

[25] = target: T25, CK1-gamma2 (Homo sapiens, UniProt P78368); details: CK1-gamma2, 1 µM; read-out: Residual Activity (%)
T25 construct: purchased ProQinase
Description: as §1, §2, §3, §4

[26] = target: T26, MYLK2 (Homo sapiens, UniProt Q9H1R3); details: MYLK2, 1 µM; read-out: Residual Activity (%)
T26 construct: purchased ProQinase
Description: as §1, §2, §3, §4

[27] = target: T27, DYRK3 (Homo sapiens, UniProt O43781); details: DYRK3, 1 µM; read-out: Residual Activity (%)
T27 construct: purchased ProQinase
Description: as §1, §2, §3, §4

[28] = target: T28, p38-beta (Homo sapiens, UniProt Q15759); details: read-out: Residual Activity (%)
T28 construct: purchased ProQinase
Description: as §1, §2, §3, §4

[29] = target: T29, SYK aa1-635 (Homo sapiens, UniProt P43405); details: SYK aa1-635, 1 µM; read-out: Residual Activity (%)
T29 construct: purchased ProQinase
Description: as §1, §2, §3, §4

T2 sequence (Q9Y243 106-479 limits assumed): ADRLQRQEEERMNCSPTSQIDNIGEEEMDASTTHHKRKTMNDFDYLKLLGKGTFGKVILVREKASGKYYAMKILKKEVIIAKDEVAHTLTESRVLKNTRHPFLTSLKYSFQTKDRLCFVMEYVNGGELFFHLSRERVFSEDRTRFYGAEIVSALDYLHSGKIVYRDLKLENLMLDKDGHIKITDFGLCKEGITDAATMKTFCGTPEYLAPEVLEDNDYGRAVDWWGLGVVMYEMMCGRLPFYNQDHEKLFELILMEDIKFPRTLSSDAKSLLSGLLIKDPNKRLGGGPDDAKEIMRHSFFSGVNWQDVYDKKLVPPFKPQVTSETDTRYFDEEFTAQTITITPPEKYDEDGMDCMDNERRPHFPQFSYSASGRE
T18 sequence (Q5TCX8 whole entry): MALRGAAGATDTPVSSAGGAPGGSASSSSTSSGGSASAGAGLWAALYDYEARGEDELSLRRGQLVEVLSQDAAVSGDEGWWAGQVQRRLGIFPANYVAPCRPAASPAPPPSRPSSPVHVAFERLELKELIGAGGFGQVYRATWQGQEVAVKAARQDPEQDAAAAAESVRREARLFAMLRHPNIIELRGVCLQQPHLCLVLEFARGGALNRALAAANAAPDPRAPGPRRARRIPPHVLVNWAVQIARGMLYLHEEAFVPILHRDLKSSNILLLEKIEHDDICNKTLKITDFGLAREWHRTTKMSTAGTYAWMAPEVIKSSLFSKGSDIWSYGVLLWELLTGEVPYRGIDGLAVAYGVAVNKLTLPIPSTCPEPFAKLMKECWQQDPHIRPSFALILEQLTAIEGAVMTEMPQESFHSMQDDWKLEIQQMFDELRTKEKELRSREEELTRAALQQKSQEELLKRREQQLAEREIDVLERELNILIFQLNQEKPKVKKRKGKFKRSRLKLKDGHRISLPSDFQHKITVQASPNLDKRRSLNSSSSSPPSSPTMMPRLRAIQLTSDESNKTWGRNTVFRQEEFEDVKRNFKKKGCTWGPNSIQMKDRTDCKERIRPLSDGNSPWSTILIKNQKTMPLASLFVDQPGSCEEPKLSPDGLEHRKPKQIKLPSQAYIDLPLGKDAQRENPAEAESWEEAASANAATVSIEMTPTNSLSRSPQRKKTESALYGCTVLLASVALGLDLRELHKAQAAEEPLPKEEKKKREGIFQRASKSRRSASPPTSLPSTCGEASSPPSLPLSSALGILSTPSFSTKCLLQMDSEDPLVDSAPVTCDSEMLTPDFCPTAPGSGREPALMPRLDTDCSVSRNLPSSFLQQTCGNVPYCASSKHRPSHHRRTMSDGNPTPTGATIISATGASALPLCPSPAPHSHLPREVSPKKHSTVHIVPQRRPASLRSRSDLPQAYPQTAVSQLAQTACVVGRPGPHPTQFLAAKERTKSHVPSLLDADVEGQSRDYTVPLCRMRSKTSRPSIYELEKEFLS
T9 sequence (O00418 whole entry): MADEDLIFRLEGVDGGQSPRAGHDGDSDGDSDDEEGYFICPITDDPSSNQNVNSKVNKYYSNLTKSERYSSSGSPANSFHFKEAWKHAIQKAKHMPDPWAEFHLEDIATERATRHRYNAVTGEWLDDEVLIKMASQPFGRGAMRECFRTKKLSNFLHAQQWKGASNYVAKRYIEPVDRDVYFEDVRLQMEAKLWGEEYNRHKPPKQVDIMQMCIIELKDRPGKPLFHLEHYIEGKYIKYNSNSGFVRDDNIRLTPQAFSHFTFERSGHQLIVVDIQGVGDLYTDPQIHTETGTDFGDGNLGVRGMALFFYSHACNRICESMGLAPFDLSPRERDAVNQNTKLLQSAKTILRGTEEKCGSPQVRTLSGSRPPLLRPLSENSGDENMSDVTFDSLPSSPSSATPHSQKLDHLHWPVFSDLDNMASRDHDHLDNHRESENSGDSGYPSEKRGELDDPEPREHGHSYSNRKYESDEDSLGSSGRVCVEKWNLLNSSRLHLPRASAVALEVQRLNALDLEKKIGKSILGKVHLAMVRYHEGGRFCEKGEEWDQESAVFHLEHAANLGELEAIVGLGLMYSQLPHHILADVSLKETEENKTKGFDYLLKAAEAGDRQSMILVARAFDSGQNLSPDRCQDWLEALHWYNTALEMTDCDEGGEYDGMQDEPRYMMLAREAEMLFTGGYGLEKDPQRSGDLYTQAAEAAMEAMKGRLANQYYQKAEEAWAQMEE
T25 sequence (P78368 whole entry): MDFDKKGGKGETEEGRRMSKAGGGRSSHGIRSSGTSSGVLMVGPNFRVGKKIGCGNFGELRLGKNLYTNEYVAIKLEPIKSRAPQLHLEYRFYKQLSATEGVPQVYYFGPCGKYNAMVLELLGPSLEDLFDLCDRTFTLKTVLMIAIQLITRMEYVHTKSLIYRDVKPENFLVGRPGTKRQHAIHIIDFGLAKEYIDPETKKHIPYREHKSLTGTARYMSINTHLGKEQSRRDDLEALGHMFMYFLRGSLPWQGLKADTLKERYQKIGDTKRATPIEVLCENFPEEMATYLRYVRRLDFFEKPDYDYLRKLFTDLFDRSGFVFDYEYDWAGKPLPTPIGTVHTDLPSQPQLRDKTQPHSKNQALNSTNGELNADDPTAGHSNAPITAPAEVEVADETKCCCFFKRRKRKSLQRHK
T27 sequence (O43781 whole entry): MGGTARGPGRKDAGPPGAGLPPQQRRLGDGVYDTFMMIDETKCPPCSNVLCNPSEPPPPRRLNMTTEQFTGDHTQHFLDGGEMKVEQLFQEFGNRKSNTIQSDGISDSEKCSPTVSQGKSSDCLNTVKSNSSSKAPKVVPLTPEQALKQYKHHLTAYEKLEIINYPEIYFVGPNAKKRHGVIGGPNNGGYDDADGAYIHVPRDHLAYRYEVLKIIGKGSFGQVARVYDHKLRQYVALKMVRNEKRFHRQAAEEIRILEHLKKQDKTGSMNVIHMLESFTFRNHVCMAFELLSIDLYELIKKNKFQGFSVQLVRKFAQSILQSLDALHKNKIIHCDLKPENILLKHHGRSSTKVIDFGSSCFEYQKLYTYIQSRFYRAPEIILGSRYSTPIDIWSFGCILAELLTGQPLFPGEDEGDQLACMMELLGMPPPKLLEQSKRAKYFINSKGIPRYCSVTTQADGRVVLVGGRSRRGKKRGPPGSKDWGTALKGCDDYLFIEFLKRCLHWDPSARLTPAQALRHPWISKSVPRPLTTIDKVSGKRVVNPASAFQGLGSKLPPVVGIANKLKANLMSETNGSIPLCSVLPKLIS
T10 sequence (P53778 whole entry): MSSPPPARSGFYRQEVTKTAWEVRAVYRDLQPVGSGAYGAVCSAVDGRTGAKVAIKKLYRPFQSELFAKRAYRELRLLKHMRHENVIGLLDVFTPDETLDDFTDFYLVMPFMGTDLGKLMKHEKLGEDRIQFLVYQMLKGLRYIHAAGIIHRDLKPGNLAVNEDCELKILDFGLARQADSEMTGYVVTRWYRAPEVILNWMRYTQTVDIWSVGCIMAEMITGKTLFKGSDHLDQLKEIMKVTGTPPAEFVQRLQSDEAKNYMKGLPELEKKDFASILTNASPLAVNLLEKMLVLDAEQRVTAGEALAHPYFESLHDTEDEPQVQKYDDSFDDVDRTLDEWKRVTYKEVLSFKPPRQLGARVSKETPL
T19 sequence (P29320 21-983): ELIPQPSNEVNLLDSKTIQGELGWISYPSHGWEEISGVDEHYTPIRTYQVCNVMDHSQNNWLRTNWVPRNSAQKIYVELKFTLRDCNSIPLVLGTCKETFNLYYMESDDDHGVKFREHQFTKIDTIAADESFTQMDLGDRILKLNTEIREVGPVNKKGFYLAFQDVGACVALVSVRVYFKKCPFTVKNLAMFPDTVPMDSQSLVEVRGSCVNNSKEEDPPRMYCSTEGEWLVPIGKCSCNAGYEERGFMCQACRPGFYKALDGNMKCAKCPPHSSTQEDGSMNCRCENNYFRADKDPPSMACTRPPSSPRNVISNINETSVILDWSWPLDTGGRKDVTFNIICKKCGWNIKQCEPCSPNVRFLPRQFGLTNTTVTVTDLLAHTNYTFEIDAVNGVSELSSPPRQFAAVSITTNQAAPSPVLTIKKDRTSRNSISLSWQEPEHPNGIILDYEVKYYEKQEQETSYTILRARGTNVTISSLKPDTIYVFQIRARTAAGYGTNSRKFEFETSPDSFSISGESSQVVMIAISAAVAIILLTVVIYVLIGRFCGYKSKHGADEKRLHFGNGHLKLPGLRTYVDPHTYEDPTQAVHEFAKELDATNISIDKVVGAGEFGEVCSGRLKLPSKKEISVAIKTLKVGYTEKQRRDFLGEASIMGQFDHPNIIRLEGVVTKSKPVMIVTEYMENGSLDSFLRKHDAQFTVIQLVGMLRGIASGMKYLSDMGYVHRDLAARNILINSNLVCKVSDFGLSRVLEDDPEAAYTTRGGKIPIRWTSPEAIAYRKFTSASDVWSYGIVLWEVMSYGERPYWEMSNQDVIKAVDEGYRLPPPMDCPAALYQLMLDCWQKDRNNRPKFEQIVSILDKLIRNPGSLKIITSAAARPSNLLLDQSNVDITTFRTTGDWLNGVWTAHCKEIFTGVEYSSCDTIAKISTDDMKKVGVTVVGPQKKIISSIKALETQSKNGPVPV
T28 sequence (Q15759 whole entry): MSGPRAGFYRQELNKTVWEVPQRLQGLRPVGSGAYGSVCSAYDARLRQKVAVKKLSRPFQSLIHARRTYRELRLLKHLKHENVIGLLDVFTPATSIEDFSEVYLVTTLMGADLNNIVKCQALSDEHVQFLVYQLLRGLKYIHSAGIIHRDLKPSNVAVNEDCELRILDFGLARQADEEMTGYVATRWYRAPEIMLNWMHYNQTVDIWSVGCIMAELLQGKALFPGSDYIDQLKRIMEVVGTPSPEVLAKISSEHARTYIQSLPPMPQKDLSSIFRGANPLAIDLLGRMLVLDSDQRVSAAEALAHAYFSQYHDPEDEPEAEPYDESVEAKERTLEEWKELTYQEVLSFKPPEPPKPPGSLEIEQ

SMILES: COc1ccc(-c2cc(C(=O)Nc3cc(-c4c(-c5ccc(F)cc5)noc4C(C)C)ccn3)n(CC3NCC(O)C3O)c2)cc1 (centres unmarked) [29d]
- remaining activity at 1 µM [1]: 108%
- remaining activity at 1 µM [2]: 95%
- remaining activity at 1 µM [3]: 110%
- remaining activity at 1 µM [4]: 97%
- remaining activity at 1 µM [5]: 102%
- remaining activity at 1 µM [6]: 121%
- remaining activity at 1 µM [7]: 91%
- remaining activity at 1 µM [8]: 104%
- remaining activity at 1 µM [9]: 99%
- remaining activity at 1 µM [10]: 99%
- remaining activity at 1 µM [11]: 118%
- remaining activity at 1 µM [12]: 125%
- remaining activity at 1 µM [13]: 101%
- remaining activity at 1 µM [14]: 4%
- remaining activity at 1 µM [15]: 96%
- remaining activity at 1 µM [16]: 102%
- remaining activity at 1 µM [17]: 96%
- remaining activity at 1 µM [18]: 112%
- remaining activity at 1 µM [19]: 118%
- remaining activity at 1 µM [20]: 109%
- remaining activity at 1 µM [21]: 83%
- remaining activity at 1 µM [22]: 104%
- remaining activity at 1 µM [23]: 167%
- remaining activity at 1 µM [24]: 101%
- remaining activity at 1 µM [25]: 80%
- remaining activity at 1 µM [26]: 97%
- remaining activity at 1 µM [27]: 106%
- remaining activity at 1 µM [28]: 74%
- remaining activity at 1 µM [29]: 148%

— PMC6429214, “Design, Synthesis and Biological Evaluation of Isoxazole-Based CK1 Inhibitors Modified with Chiral Pyrrolidine Scaffolds” (Molecules, 2019)
